Test results as given in patent US20080119542A1, “METHODS OF USING ARTEMISININ-LIKE COMPOUNDS TO PREVENT OR DELAY THE APPEARANCE OF CANCER” (UNIVERSITY OF WASHINGTON, priority 2002, published 2008).

Tests used:
[1] = cancer patient; oral 50 mg per day, intramuscular 60 mg/day, over 9 months; cited from earlier work
mammary tumors [2] = experiment: Tumor development in DMBA-treated rats given weekly oral intubations of artemisinin; format: in vivo, Female Sprague-Dawley rats; details: for Percentage of Animals with Tumors: artemisinin 10 mg/kg weekly oral intubation
Experimental: This Example describes a representative method for preventing or slowing the development of cancer in rats exposed to a carcinogen by administering artemisinin by weekly oral intubations.
Materials and Methods: Female Sprague-Dawley rats were administered a single intragastric dose of the carcinogen 7,12-dimethylbenz[a]anthracene (DMBA; Sigma Chemicals, St Louis, Mo.; 50 mg/kg body weight) suspended in olive oil (Sigma Chemicals, St Louis, Mo.; 25 mg/ml). Animals were randomly assigned to two treatment groups to receive either weekly oral intubations of artemisinin (Holley Pharmaceuticals, Fullerton, Calif.; 10 mg/kg at 10 mg/ml of olive oil) or olive oil (control). Artemisinin treatment began a week after DMBA administration. Animals were palpated for the presence of mammary tumors once weekly. The time and site of detection and size were recorded for each tumor in an animal.

mammary tumors [3] = experiment: Tumor development in DMBA-treated rats given artemisinin mixed in food; format: in vivo, Female rats; details: artemisinin 0.05% in food, approximately 10 mg/kg/day
Source text: This Example describes a representative method for preventing or slowing the development of cancer in rats exposed to a carcinogen by providing artemisinin mixed in food.
Materials and Methods: Female rats were similarly treated with the carcinogen DMBA, as described in EXAMPLE 1. The rats were randomly assigned to two treatment groups. Artemisinin (0.05%) was mixed in the food of one group of animals starting the day immediately after DMBA treatment. Daily intake of artemisinin, based on the amount of food eaten each day, was estimated to be approximately 10 mg/kg/day. The other group of animals (controls) was given regular rat food.

C[C@H]1[C@H](OC(=O)CCC(=O)O)O[C@@H]2O[C@@]3(C)CC[C@H]4[C@H](C)CC[C@@H]1[C@@]24OO3 [artesunate]
Adverse side effects [1]: No apparent adverse side effects

C[C@@H]1CC[C@H]2[C@@H](C)C(=O)O[C@@H]3O[C@@]4(C)CC[C@@H]1[C@]32OO4 [Artemisinin, artemisinin]
Percentage of Animals with Tumors (mammary tumors [2]; week 6 after DMBA): 0% | Percentage of Animals with Tumors (mammary tumors [2]; week 6 after DMBA, listed as artemisinin): none | Percentage of Animals with Tumors (mammary tumors [2]; week 7 after DMBA): 9% | Percentage of Animals with Tumors (mammary tumors [2]; week 9 after DMBA): 9% | Percentage of Animals with Tumors (mammary tumors [2]; week 10 after DMBA): 9% | Percentage of Animals with Tumors (mammary tumors [2]; week 11 after DMBA): 9% | Percentage of Animals with Tumors (mammary tumors [2]; week 12 after DMBA): 27% | Percentage of Animals with Tumors (mammary tumors [2]; week 13 after DMBA): 45% | Percentage of Animals with Tumors (mammary tumors [2]; week 16 after DMBA): 45% | Percentage of Animals with Tumors (mammary tumors [2]; week 17 after DMBA): 45% | Percentage of Animals with Tumors (mammary tumors [2]; week 20 after DMBA): 54% | Percentage of Animals with Tumors (mammary tumors [2]; week 29 after DMBA): 64% | Percentage of Animals with Tumors (mammary tumors [2]; week 31 after DMBA): 64% | Percentage of Animals with Tumors (mammary tumors [2]; week 38 after DMBA): 64% | Appearance of tumors in carcinogen-treated animals (mammary tumors [2]; weekly artemisinin treatment vs olive oil controls): delayed the appearance of tumors | Percentage of Animals with Tumors (mammary tumors [3]; week 6 after DMBA): 0% | Percentage of Animals with Tumors (mammary tumors [3]; week 7 after DMBA): 0% | Percentage of Animals with Tumors (mammary tumors [3]; week 8 after DMBA): 0% | Percentage of Animals with Tumors (mammary tumors [3]; week 9 after DMBA): 0% | Percentage of Animals with Tumors (mammary tumors [3]; week 10 after DMBA): 0% | Percentage of Animals with Tumors (mammary tumors [3]; week 10 after DMBA, listed as artemisinin): none
